Reference: ChEMBL document CHEMBL1201862, “PubChem BioAssay data set” (2004)
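The compound was tested at five concentrations on cells cultured in 96-well plates, with a 48-hour exposure period. The concentration for 50% growth inhibition is given as GI50.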 Active and inactive are the calls of the source. Cut-off read from the data, not from the text of the source: active = GI50 up to about 1.1 µM and inactive = higher.

Tests used:
Experiment in all cases: NCI anticancer screen, dose series, 48 h
[1] = tested on: A549
[2] = tested on: EKVX
[3] = tested on: HCT-15
[4] = tested on: SN12C
[5] = tested on: K562
[6] = tested on: T47D
[7] = tested on: IGROV-1
[8] = tested on: NCI-H226
[9] = tested on: KM12
[10] = tested on: U-251
[11] = tested on: HOP-62
[12] = tested on: SK-MEL-2
[13] = tested on: OVCAR-5
[14] = tested on: PC-3
[15] = tested on: LOX IMVI
[16] = tested on: SF-539
[17] = tested on: SNB-19
[18] = tested on: MOLT-4
[19] = tested on: SK-MEL-5
[20] = tested on: UACC-257
[21] = tested on: COLO 205
[22] = tested on: MCF7
[23] = tested on: SR
[24] = tested on: CCRF-CEM
[25] = tested on: HCC 2998
[26] = tested on: HCT-116
[27] = tested on: SW-620
[28] = tested on: NCI-H460
[29] = tested on: A498
[30] = tested on: NCI-H522
[31] = tested on: HT-29
[32] = tested on: MDA-MB-435
[33] = tested on: SNB-75
[34] = tested on: MDA-N
[35] = tested on: SF-268
[36] = tested on: MDA-MB-231
[37] = tested on: RPMI-8226
[38] = tested on: 786-0
[39] = tested on: SK-OV-3
[40] = tested on: HL-60
[41] = tested on: ACHN
[42] = tested on: DU-145
[43] = tested on: Hs-578T
[44] = tested on: NCI-H23
[45] = tested on: NCI/ADR-RES
[46] = tested on: OVCAR-8
[47] = tested on: TK-10
[48] = tested on: SK-MEL-28
[49] = tested on: SF-295
[50] = tested on: Malme-3M
[51] = tested on: UO-31
[52] = tested on: RXF 393
[53] = tested on: OVCAR-3
[54] = tested on: OVCAR-4
[55] = tested on: BT-549
[56] = tested on: CAKI-1
[57] = tested on: UACC-62
[58] = tested on: HOP-92
[59] = tested on: M14

Measured: GI50

c1ncn(C23C4C5C6C4C2C6C53)n1 (configuration not stated)
inactive: [1] > 100 µM | [2] > 100 µM | [4] > 100 µM | [5] > 100 µM | [6] > 100 µM | [7] > 100 µM | [8] > 100 µM | [9] > 100 µM | [10] > 100 µM | [11] > 100 µM | [12] > 100 µM | [13] > 100 µM | [14] > 100 µM | [15] > 100 µM | [16] > 100 µM | [17] > 100 µM | [18] > 100 µM | [19] > 100 µM | [20] > 100 µM | [21] > 100 µM | [22] > 100 µM | [23] > 100 µM | [24] > 100 µM | [25] > 100 µM | [26] > 100 µM | [27] > 100 µM | [28] > 100 µM | [29] > 100 µM | [30] > 100 µM | [31] > 100 µM | [32] > 100 µM | [33] > 100 µM | [34] > 100 µM | [35] > 100 µM | [36] > 100 µM | [37] > 100 µM | [38] > 100 µM | [39] > 100 µM | [40] > 100 µM | [41] > 100 µM | [42] > 100 µM | [43] > 100 µM | [44] > 100 µM | [45] > 100 µM | [46] > 100 µM | [47] > 100 µM | [48] > 100 µM | [49] > 100 µM
> 100 µM: [3]

Cc1nc(Nc2ccc(Cl)c(Cl)c2)sc1C(=O)/C=C/c1ccc2c(c1)OCO2
inactive: [1] 22.3 µM | [2] 34.5 µM | [50] 31.9 µM | [5] 31.6 µM | [6] 42.5 µM | [7] 38.6 µM | [8] 25.9 µM | [9] 20.9 µM | [10] 22 µM | [51] 16.9 µM | [52] 15.9 µM | [11] 17.9 µM | [13] 88.7 µM | [15] 19.4 µM | [16] 23.7 µM | [53] 10.4 µM | [54] 17.8 µM | [17] 21.5 µM | [18] 14.9 µM | [19] 33.4 µM | [20] 31.6 µM | [21] 24.7 µM | [22] 25.1 µM | [24] 31.8 µM | [25] 30.2 µM | [26] 20.6 µM | [27] 40.5 µM | [55] 21.5 µM | [28] 34.5 µM | [29] 23.3 µM | [31] 36.8 µM | [32] 20.5 µM | [33] 14.4 µM | [35] 24.3 µM | [37] 17.1 µM | [56] 16.5 µM | [38] 20.2 µM | [39] 18.7 µM | [40] 18.9 µM | [41] 16.8 µM | [42] > 10 µM | [44] 20 µM | [45] 34.4 µM | [57] 37.6 µM | [46] 23.2 µM | [47] 24.5 µM | [48] 31.7 µM | [49] 20 µM

CC(C)=CCC/C(C)=C/C=C/C(C)=C/C=C/C(C)=C/C=C/C=C(C)/C=C/C=C(C)/C=C/[C@H]1C(C(C)(C)O)CC[C@]1(C)O (some centres not stated)
inactive: [2] 40.6 µM | [5] 21.4 µM | [6] 22.9 µM | [7] 20.2 µM | [8] 71.1 µM | [9] 27.4 µM | [10] 20.7 µM | [51] 20.2 µM | [52] 17.3 µM | [11] 20 µM | [12] 37 µM | [13] 40 µM | [14] 30.3 µM | [15] 23.3 µM | [16] 29.2 µM | [53] 18.8 µM | [54] 32.1 µM | [18] 20.7 µM | [58] 12.7 µM | [19] 15.5 µM | [20] 21.8 µM | [22] 16.4 µM | [23] 23 µM | [24] 15.1 µM | [25] 15.5 µM | [26] 15.7 µM | [27] 25.8 µM | [28] 29.8 µM | [29] 27.1 µM | [30] 17.3 µM | [31] 27.5 µM | [32] 23 µM | [34] 25.1 µM | [35] 19.5 µM | [36] 25.4 µM | [59] 28.8 µM | [37] 17.7 µM | [56] 33.5 µM | [38] 21.4 µM | [39] 56.2 µM | [40] 19.3 µM | [41] 22 µM | [42] 16.9 µM | [43] 22.1 µM | [44] 20.2 µM | [45] 32.4 µM | [46] 20.2 µM | [47] 37.3 µM | [48] 20.5 µM | [49] 32.7 µM
19.4 µM: [3]

CC(=O)OCC1OC(SC2OC(COC(C)=O)C(OC(C)=O)C(OC(C)=O)C2OC(C)=O)C(OC(C)=O)C(OC(C)=O)C1OC(C)=O (configuration not stated)
inactive: [1] > 100 µM | [2] > 100 µM | [4] > 100 µM | [50] > 100 µM | [5] > 100 µM | [6] > 100 µM | [7] > 100 µM | [8] > 100 µM | [9] > 100 µM | [10] > 100 µM | [51] > 100 µM | [52] > 100 µM | [11] > 100 µM | [13] > 100 µM | [15] > 100 µM | [16] > 100 µM | [53] > 100 µM | [54] > 100 µM | [17] > 100 µM | [18] > 100 µM | [19] > 100 µM | [20] > 100 µM | [21] > 100 µM | [22] > 100 µM | [23] > 100 µM | [24] > 100 µM | [25] > 100 µM | [26] > 100 µM | [27] > 100 µM | [55] > 100 µM | [28] > 100 µM | [29] 54.1 µM | [31] > 100 µM | [32] > 100 µM | [33] > 100 µM | [34] > 100 µM | [35] > 100 µM | [36] > 100 µM | [37] > 100 µM | [56] > 100 µM | [38] > 100 µM | [39] > 100 µM | [40] > 100 µM | [41] 52.5 µM | [42] > 100 µM | [44] > 100 µM | [45] > 100 µM | [57] > 100 µM | [46] > 100 µM | [47] > 100 µM | [48] > 100 µM | [49] > 100 µM
> 100 µM: [3]

O=C1N[C@H]2c3c(Cl)sc(Cl)c3/C(=N/O)[C@H]2O1
67.9 µM: [3]
inactive: [1] > 100 µM | [2] > 100 µM | [4] > 100 µM | [50] > 100 µM | [5] 75.3 µM | [6] > 100 µM | [7] 72.3 µM | [9] > 100 µM | [10] > 100 µM | [51] > 100 µM | [52] > 100 µM | [11] > 100 µM | [12] > 100 µM | [13] > 100 µM | [14] > 100 µM | [16] 88.1 µM | [53] > 100 µM | [17] > 100 µM | [18] > 100 µM | [19] > 100 µM | [20] > 100 µM | [21] > 100 µM | [22] > 100 µM | [23] > 100 µM | [24] 52.2 µM | [25] > 100 µM | [26] 80.7 µM | [27] > 100 µM | [55] > 100 µM | [28] 76.4 µM | [29] > 100 µM | [31] > 100 µM | [32] > 100 µM | [33] > 100 µM | [34] > 100 µM | [35] > 100 µM | [36] > 100 µM | [59] > 100 µM | [37] > 100 µM | [56] > 100 µM | [38] > 100 µM | [39] > 100 µM | [40] 18.7 µM | [41] > 100 µM | [42] > 100 µM | [45] > 100 µM | [57] > 100 µM | [46] > 100 µM | [47] > 100 µM | [48] > 100 µM
